From US7741359B2, “Hydrogen sulfide derivatives of non-steroidal anti-inflammatory drugs” (Antibe Therapeutics Inc., priority 2006, dated 2010)
Entries after “also recorded” stand apart in the source; their conditions may differ.

Key:
[1] = test system: gastric prostaglandin E2 (PGE2) synthesis (COX-1 and/or COX-2); assay: Gastric prostaglandin E2 (PGE2) synthesis in excised rat gastric tissue; format: in vivo; conditions: oral; doses equimolar to diclofenac 20 mg/kg; tissue taken 3 h after administration; FIG. 2
Description: Briefly, the tissue samples were minced with scissors for 30 min, then placed in 1 mL of sodium phosphate buffer (pH 7.4) and placed in a shaking water bath (37° C.) for 20 min.

COX-1 [2] = molecular target: T1, COX-1 (Rattus norvegicus, UniProt Q63921); assay: Whole blood thromboxane B2 synthesis of treated rats (inhibition of COX-1); format: in vivo
T1 construct: whole blood thromboxane synthesis, which occurs via COX-1; from tissue; host or cells: rat whole blood (ex vivo clotting after oral dosing)
T1 sequence (Q63921 27-602): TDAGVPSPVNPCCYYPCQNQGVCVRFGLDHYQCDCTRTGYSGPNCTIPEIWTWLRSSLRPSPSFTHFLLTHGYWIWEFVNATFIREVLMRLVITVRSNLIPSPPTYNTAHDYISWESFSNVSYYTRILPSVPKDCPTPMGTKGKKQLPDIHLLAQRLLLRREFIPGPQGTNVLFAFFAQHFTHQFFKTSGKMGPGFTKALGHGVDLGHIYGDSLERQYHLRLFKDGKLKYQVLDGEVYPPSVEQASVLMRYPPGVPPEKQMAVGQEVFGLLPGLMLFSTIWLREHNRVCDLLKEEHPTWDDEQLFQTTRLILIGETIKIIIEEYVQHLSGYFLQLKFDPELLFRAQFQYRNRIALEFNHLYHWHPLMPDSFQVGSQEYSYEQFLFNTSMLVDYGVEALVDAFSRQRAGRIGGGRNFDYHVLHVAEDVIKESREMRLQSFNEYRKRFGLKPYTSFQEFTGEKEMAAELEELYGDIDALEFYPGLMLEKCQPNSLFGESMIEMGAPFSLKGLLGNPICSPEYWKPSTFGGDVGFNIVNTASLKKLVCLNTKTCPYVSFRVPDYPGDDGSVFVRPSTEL
Description: Inhibition of COX-1 was also measured using the same rats. […] The samples were then centrifuged for 3 min at 9,000 g and the supernatant was frozen at −80° C. for subsequent measurement of thromboxane B2 concentrations using a specific ELISA.
Inhibition of COX-1 was also measured using the same rats, using the same method as described for FIG. 4. […]

[3] = Hematocrit before and after repeated administration; format: in vivo, rat; conditions: 50 μmol/kg at time 0, 12 and 24 hours; start versus 24 h after final dose; FIG. 6
Excerpt: Another group of rats received vehicle (1% carboxymethylcellulose).

COX-2 = molecular target: T2, COX-2 (Rattus norvegicus, UniProt P35355); assay: Rat airpouch assay, exudate PGE2 after zymosan (inhibition of COX-2 in vivo)
T2 construct: from tissue; host or cells: rat subcutaneous airpouch (in vivo, zymosan-induced inflammation)
T2 sequence (P35355 18-604): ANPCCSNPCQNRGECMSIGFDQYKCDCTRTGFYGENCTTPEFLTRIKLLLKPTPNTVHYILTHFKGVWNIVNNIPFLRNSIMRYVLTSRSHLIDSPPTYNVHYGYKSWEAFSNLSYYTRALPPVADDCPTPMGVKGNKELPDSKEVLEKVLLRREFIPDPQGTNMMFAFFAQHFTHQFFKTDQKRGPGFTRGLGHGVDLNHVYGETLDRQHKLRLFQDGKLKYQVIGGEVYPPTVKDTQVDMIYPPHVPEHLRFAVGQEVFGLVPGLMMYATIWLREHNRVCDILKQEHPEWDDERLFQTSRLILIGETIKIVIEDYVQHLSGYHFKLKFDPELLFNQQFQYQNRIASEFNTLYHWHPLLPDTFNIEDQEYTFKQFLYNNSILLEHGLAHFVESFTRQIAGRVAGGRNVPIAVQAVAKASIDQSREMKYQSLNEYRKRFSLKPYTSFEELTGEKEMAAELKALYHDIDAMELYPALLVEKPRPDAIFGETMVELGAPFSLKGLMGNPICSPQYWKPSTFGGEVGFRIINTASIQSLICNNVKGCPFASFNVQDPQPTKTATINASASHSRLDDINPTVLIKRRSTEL
Description: Briefly, a subcutaneous “pouch” is created by repeated injections of air over several days. Once established, inflammation in the pouch can be induced by injection of 1 mL of 1% zymosan. […] Another group of 5 rats was treated with the vehicle, but received an injection of 0.9% sterile saline into the pouch rather than zymosan. […]
Each group consisted of 5 rats.

[4] = Carrageenan hindpaw edema model; format: in vivo, rat; conditions: 30 min prior to carrageenan
Description: Male, Wistar rats weighing 175-200 g were given the test compounds orally 30 min prior to subplantar injection of 100 ul of 1% lambda carrageenan. Paw volume measured using an Ugo Basile hydroplethysmometer prior to carrageenan injection and at 1-h intervals thereafter for 5 h.

[5] = Small intestinal injury after repeated administration; conditions: 50 μmol/kg at time 0, 12 and 24 hours; assessed 24 h after final dose; FIG. 5
[6] = Systolic blood pressure in hypertensive (L-NAME) rats; conditions: 30 μmol/kg intraperitoneal bolus; recorded for 60 minutes; FIG. 14
[7] = Gastric damage (gastric damage score) in rats after oral dosing; conditions: rats fasted 18 h; oral; doses equimolar to diclofenac 20 mg/kg; 3 h after administration; FIG. 1
[8] = Incidence of gastric damage at the end of the leukocyte adherence experiment; conditions: intragastric 30 μmol/kg; for Percent Incidence of Gastric Damage: end of experiment
Description: Briefly, post-capillary mesenteric venules in anesthetized rats are examined under a light microscope. […] All test compounds were prepared in a vehicle of 1% carboxymethylcellulose. Changes in leukocyte adherence within the venule were recorded with a video camera attached to the microscope, and quantification of the numbers of adherent leukocytes was performed in a blind manner through evaluation of the videotaped images. Each group consisted of 5 male, Wistar rats weighing 150-175 g. A leukocyte was considered “adherent” if it remained stationary for 30 seconds or more (results below are expressed as the mean ± SEM). At the end of the experiment the stomach was opened and examined for the presence of gastric damage, under a dissecting microscope.

[9] = test system: leukocyte adherence to the vascular endothelium; assay: Leukocyte adherence to the vascular endothelium, intravital microscopy of mesenteric venules; conditions: intragastric 30 μmol/kg; for Number of Adherent Leukocytes: mean ± SEM
Description: Briefly, post-capillary mesenteric venules in anesthetized rats are examined under a light microscope. […] All test compounds were prepared in a vehicle of 1% carboxymethylcellulose. Changes in leukocyte adherence within the venule were recorded with a video camera attached to the microscope, and quantification of the numbers of adherent leukocytes was performed in a blind manner through evaluation of the videotaped images. Each group consisted of 5 male, Wistar rats weighing 150-175 g. A leukocyte was considered “adherent” if it remained stationary for 30 seconds or more (results below are expressed as the mean ± SEM).

COX-1 [10] = molecular target: T3, COX-1 (Homo sapiens, UniProt P23219); assay: Human whole blood thromboxane B2 synthesis in vitro; format: cell-based; conditions: FIG. 12; for inhibition of COX-1 activity (thromboxane B2 synthesis by human blood): 0.1, 0.3, 1 or 3 μM, 45 min 37° C.
T3 construct: from tissue; host or cells: human whole blood from healthy volunteers
T3 sequence (P23219 24-599): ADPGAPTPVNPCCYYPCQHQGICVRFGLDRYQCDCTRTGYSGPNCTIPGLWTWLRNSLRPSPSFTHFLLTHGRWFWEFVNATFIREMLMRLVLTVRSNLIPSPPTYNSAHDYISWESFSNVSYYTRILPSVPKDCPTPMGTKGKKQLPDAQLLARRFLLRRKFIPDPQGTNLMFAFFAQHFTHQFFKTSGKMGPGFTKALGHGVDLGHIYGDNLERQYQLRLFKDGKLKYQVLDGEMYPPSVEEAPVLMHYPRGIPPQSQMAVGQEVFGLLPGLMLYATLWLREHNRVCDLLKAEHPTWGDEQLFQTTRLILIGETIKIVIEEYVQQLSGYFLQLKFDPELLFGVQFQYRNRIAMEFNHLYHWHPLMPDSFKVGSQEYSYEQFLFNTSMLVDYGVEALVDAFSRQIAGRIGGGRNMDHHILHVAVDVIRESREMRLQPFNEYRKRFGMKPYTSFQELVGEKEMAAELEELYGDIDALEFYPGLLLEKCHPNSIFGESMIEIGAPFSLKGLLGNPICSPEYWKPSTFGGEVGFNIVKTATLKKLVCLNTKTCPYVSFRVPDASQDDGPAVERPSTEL
Description: Aliquots (0.5 mL) of blood from healthy human volunteers were added to glass tubes containing 10 uL of methanol alone, or one of the test drugs prepared such that the final concentration would be 0.1, 0.3, 1 or 3 μM. The tubes were placed in water bath (37° C.) with gentle shaking for 45 min, after which they were centrifuged (1,000×g) for 10 minutes. The concentration of thromboxane B2 in each sample was then determined using a specific ELISA, as in the studies shown in FIG. 4.

[11] = Healing of acetic acid-induced gastric ulcers; format: in vivo, rat
Description: Gastric ulcers were induced via serosal application of acetic acid, as described by Elliott et al., A nitric oxide-releasing nonsteroidal anti-inflammatory drug accelerates gastric ulcer healing in rats. Gastroenterology 1995; 109: 524-530. […] After 4 days of such treatment, the rats were euthanized and the stomach was excised and photographed. The area (in mm^2) of the ulcer was determined planimetrically by an individual unaware of the treatments given to the rats. In a subgroup of 5 rats euthanized 3 days after induction of gastric ulcers (i.e., prior to initiation of drug treatment), the mean surface area of the ulcers was 24±2 mm^2.

O=C(Cc1ccccc1Nc1c(Cl)cccc1Cl)Oc1ccc(-c2cc(=S)ss2)cc1 [Compound II, [2-(2,6-dichloro-phenylamino)-phenyl]-acetic acid 4-(5-thioxo-5H-[1,2]dithiol-3-yl)-phenyl ester]
gastric PGE2 synthesis [1]: significantly reduced the amount of gastric PGE2 synthesis; also recorded: near-complete | inhibition at 4.8 mg/kg (COX-1 [2]; rat, po): > 80% | hematocrit [3]: no significant effect on hematocrit | concentrations of PGE2 within the pouch (COX-2) (COX-2; oral 30 min before injection, diclofenac 3 mg/kg, Compound II 4.8 mg/kg, Compound XVII 4.1 mg/kg, 1% zymosan, FIG. 7): markedly reduced the concentrations of PGE2 within the pouch | paw edema (paw volume increase) ([4]; oral, dose equimolar to diclofenac at 3 mg/kg, compared with diclofenac, FIGS. 9, 10, 3 mg/kg): reduced paw edema to a greater extent; also recorded: comparable to the effect of diclofenac at a dose of 10 mg/kg | extent of small intestinal damage, less than in rats treated with diclofenac [5]: > 90% | change in systolic blood pressure [6]: did not increase systolic blood pressure as compared to the vehicle-treated group; also recorded: significantly lower than that induced by diclofenac and naproxen, respectively | gastric damage score [7]: no gastric damage was seen; also recorded: elicited significantly less gastric damage than diclofenac | percent incidence of gastric damage compared to the parent NSAID alone [8]: significantly reduced the percent incidence of gastric damage when compared to diclofenac alone | Percent Incidence of Gastric Damage [8]: 0% | number of adherent leukocytes compared to the parent NSAID alone [9]: significantly reduced the number of adherent leukocytes per 100 μm vessel length | Number of Adherent Leukocytes [9]: 3.0 ± 0.5 per 100 μm vessel length

COc1ccc2c(c1)c(CC(=O)Oc1ccc(-c3cc(=S)ss3)cc1)c(C)n2C(=O)c1ccc(Cl)cc1 [Compound IV, [1-(4-Chloro-benzoyl)-5-methoxy-2-methyl-1-H-indol-3-yl]-acetic acid 4-(5-thioxo-5-H-[1,2]dithiol-3-yl)-phenyl ester]
inhibition of COX-1 activity (thromboxane B2 synthesis by human blood) (COX-1 [10]): concentration-dependent inhibition of COX-1 activity as compared to the vehicle-treated group | Percent Incidence of Gastric Damage [8]: 20% | Number of Adherent Leukocytes [9]: 3.6 ± 0.7 per 100 μm vessel length

COc1ccc2c(c1)c(CC(=O)Oc1ccc(C(N)=S)cc1)c(C)n2C(=O)c1ccc(Cl)cc1 [Compound XIX, [1-(4-Chloro-benzoyl)-5-methoxy-2-methyl-1-H-indol-3-yl]-acetic acid 4-thiocarbamoyl-phenyl ester]
inhibition of COX-1 activity (thromboxane B2 synthesis by human blood) (COX-1 [10]): concentration-dependent inhibition of COX-1 activity as compared to the vehicle-treated group; also recorded: significantly better at inhibiting thromboxane B2 synthesis than the ADT-OH equivalent, Compound IV | inhibition of COX-1 activity compared with indomethacin (COX-1 [10]; concentrations of 1 and 3 μM): significantly greater (*p<0.05) inhibition of COX-1 activity than that produced by indomethacin | Percent Incidence of Gastric Damage [8]: 0%

O=C(O)Cc1ccccc1Nc1c(Cl)cccc1Cl [Diclofenac, diclofenac, reference compound]
hematocrit [3]: profound reduction of hematocrit | paw edema (paw volume increase) ([4]; oral 1, 3 or 10 mg/kg, FIG. 9): dose-dependently reduced paw edema | gastric ulcer healing (ulcer area) ([11]; 30 μmol/kg twice-daily orally for 4 days, starting 3 days after ulcer induction, FIG. 13): exhibited similar degrees of healing | small intestinal damage (erosions/ulcers) [5]: extensive erosions and ulcers in the small intestine | change in systolic blood pressure [6]: caused a substantial increase in systolic blood pressure

NC(=S)c1ccc(O)cc1 [TBZ, 4-hydroxythiobenzamide, reference compound]
gastric PGE2 synthesis [1]: did not reduce gastric PGE2 synthesis when compared to vehicle | COX-1 activity (whole blood thromboxane synthesis) (COX-1 [2]; hydrogen sulfide releasing moieties alone, dose not given, FIG. 8): neither of the hydrogen sulfide releasing moieties (ADT-OH and TBZ) significantly affected COX-1 activity | COX-2 activity (exudate PGE2) (COX-2; hydrogen sulfide releasing moieties alone, dose not given): neither of the hydrogen sulfide releasing moieties (ADT-OH and TBZ) significantly affected COX-2 activity | gastric ulcer healing (ulcer area) ([11]; hydrogen sulfide releasing moiety alone, dose not given): did not significantly affect the healing of gastric ulcers as compared to the vehicle-treated group
